# System: Human
# Assay: not given
# Design: method as in ref 48 (PiHKAL: A Chemical Love Story)
# Conditions: ref 48 (PiHKAL: A Chemical Love Story); cited from earlier work
row,Compound,Human dose
1,"COc1ccc(OC)c(CC(C)N)c1.Cl (stereo not drawn) [2,5-DMA, 2,5-Dimethoxyamphetamine hydrochloride]",80 to 160 mg
2,"CCCCCc1cc(OC)c(CC(C)N)cc1OC (stereo not drawn) [DOAM, 4-amyl-2,5-dimethoxyamphetamine]",> 10 mg
3,"CCCCc1cc(OC)c(CC(C)N)cc1OC (stereo not drawn) [DOBU, 4-butyl-2,5-dimethoxyamphetamine]",Uncertain
4,"CCc1cc(OC)c(CC(C)N)cc1OC (stereo not drawn) [DOET, 4-ethyl-2,5-dimethoxyamphetamine]",2.0 to 6.0 mg
5,"COc1cc(CC(C)N)c(OC)cc1C (stereo not drawn) [DOM, 4-methyl-2,5-dimethoxyamphetamine]",3.0 to 10.0 mg
6,"CCCc1cc(OC)c(CC(C)N)cc1OC.Cl (stereo not drawn) [DOPR, 4-propyl-2,5-dimethoxyamphetamine hydrochloride]",2.5 to 5.0 mg

# System: 5-HT2A receptor
# Assay: 5-HT2A receptor activation bias factors (relative intrinsic activity, 5-HT reference)
# Type: cell-based, human
# Conditions: 5-HT as reference agonist; positive = preference for numerator pathway
# Experimental: (§1) The IC50 values from the radioligand binding assays were determined by nonlinear regression, using three independent concentration-response curves fitted to a one-site model. The Cheng-Prusoff equation was used to calculate Kᵢ values for the competing ligands. EC50 values were determined by applying nonlinear regression to concentration-response curves. Bias factors (β) were calculated based on the relative intrinsic activity approach. More detailed information can be found in the Supplementary information. Mean values for total number of HTR, change in body temperature from pre to post session (Δ°C), and total distance traveled (cm) for each drug dose were compared (p < 0.05) via Welch’s ANOVA with Dunnett’s T3 post test, comparing all doses to respective vehicle controls (0 mg/kg). Welch’s ANOVA with Dunnett’s T3 post test was also used to compare drug concentrations, but the data were compared to DOM in this case. Dose–response relationships for HTR and locomotor activities were plotted using bell-shaped curve fits, while temperature change data were plotted using four-parameter non-linear regression curve fits. The ascending phase of the HTR curve for each drug was used to determine ED50 potency values from four parameter non-linear regression fits. For combined DOM and DOAM administration, the plasma, brain tissue, and brain dialysate drug concentrations were compared using paired t-tests (p < 0.05).
# Bias factors close to 0 imply no bias toward either tested signaling pathway. Positive values indicate a preference for pathway 1, and negative values indicate a preference for pathway 2, relative to the reference agonist 5-HT. […]
# (§2) the β-arrestin 2 molecule in the NanoBiT system) were seeded at a density of 50,000 cells per well in poly - D-lysine-coated 96-well plates in medium containing 10% dialyzed FBS. The plate was then incubated at […]
# (§3) The following day, the cells were washed twice with 150 µL HBSS, and 100 µL HBSS was subsequently added to each well. Thereafter, 25 µL of substrate (1 :20 diluted in buffer) was added, and […]
# (§4) agonist solutions was added, and the signal was monitored for 2 h. Drug dilutions in HBSS were made from 10 mM stock solutions in DMSO , yielding concentration ranges from 10 µM to 10 pM. All concentrations were run in duplicate and included the appropriate solvent controls. Efficacy was normalized to 5 -HT […]
# (§5) 3.2.3 Arachidonic acid release
# (§6) Arachidonic acid release was assessed as a marker for Gαi/o,12/13 mediated signaling.
# (§7) NIH/3T3 cells stably expressing the 5 -HT2A receptor were seeded at a density of 75,000 cells per well in a poly-D-lysine-coated 48-well plate. The following day, the cells were labeled with 300 μL [ 3H]arachidonic […]
# (§8) Thereafter, the cells were washed 3 times for
# (§9) (10 mM) of test substances were prepared in DMSO. The final dilution series of test substances dissolved […]
# (§10) Thereafter, the plate was put on ice, and 400 μL incubation supernatant per well was transferred int o scintillation vials containing scintillation fluid (Ultimagold, Perkin Elmer, Schwerzenbach, Switzerland). The remaining supernatant was removed, and the cells were lysed with 1% sodium dodecyl sulfate lysis buffer. The obtained cell lysate was transferred into scintillation vials containing scintillation fluid. Radioactivity was measured on a liquid scintillation counter (Packard 1900 TR Tri-Carb Liquid Scintillation Counter; Packard Instrument Company). Efficacy was normalized to 5-HT activity.
# (§11) 3.2.4 Calculation of bias factors […]
# (§12) using 5-HT as the reference agonist.
# (§13) RApathway = EC50, i = EC50, ref×Emax,i […]
# Then, the obtained RA values were used to calculate the bias factor (β) for each pathway combination. […]
# pathway 1 over pathway 2. Brown-Forsythe and Welch ANOVA analyses were applied to estimate the […]
Compound,"Bias factor β Gαi/o,12/13/Gαq","Bias factor β Gαi/o,12/13/β-arrestin 2",Bias factor β β-arrestin 2/Gαq
"COc1ccc(OC)c(CC(C)N)c1.Cl (stereo not drawn) [2,5-DMA, 2,5-Dimethoxyamphetamine hydrochloride]",0.37,0.29,0.09
"CCCCCc1cc(OC)c(CC(C)N)cc1OC (stereo not drawn) [DOAM, 4-amyl-2,5-dimethoxyamphetamine]",-0.30,0.43,-0.73
"CCCCc1cc(OC)c(CC(C)N)cc1OC (stereo not drawn) [DOBU, 4-butyl-2,5-dimethoxyamphetamine]",-0.61,0.25,-0.86
"CCc1cc(OC)c(CC(C)N)cc1OC (stereo not drawn) [DOET, 4-ethyl-2,5-dimethoxyamphetamine]",0.16,0.07,0.08
"COc1cc(CC(C)N)c(OC)cc1C (stereo not drawn) [DOM, 4-methyl-2,5-dimethoxyamphetamine]",0.04,0.39,-0.35
"CCCc1cc(OC)c(CC(C)N)cc1OC.Cl (stereo not drawn) [DOPR, 4-propyl-2,5-dimethoxyamphetamine hydrochloride]",-0.53,0.11,-0.64

# Biological target: T1, h5-HT1A (Homo sapiens, UniProt P08908)
# T1 construct: expressed in transfected cells; host or cells: HEK 293 cells (membrane preparation)
# T1 sequence (P08908 1-422): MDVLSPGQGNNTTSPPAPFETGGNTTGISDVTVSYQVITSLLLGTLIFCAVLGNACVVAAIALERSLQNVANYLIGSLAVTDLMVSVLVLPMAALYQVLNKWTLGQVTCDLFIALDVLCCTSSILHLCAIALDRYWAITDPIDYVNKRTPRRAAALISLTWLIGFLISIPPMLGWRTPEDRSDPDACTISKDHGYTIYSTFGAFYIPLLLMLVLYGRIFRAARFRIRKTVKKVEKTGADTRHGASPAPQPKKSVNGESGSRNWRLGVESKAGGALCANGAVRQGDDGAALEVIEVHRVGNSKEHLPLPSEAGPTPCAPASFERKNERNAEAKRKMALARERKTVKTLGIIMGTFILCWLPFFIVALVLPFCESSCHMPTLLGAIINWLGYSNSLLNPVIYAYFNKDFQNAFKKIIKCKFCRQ
# Assay: Radioligand binding, h5-HT1A receptor ([3H]8-OH-DPAT)
# Conditions: not given
row,Compound,Ki
1,"COc1ccc(OC)c(CC(C)N)c1.Cl (stereo not drawn) [2,5-DMA, 2,5-Dimethoxyamphetamine hydrochloride]",6020 nM
2,"CCCCCc1cc(OC)c(CC(C)N)cc1OC (stereo not drawn) [DOAM, 4-amyl-2,5-dimethoxyamphetamine]",8420 nM
3,"CCCCc1cc(OC)c(CC(C)N)cc1OC (stereo not drawn) [DOBU, 4-butyl-2,5-dimethoxyamphetamine]",13500 nM
4,"CCc1cc(OC)c(CC(C)N)cc1OC (stereo not drawn) [DOET, 4-ethyl-2,5-dimethoxyamphetamine]",5760 nM
5,"CCCc1cc(OC)c(CC(C)N)cc1OC.Cl (stereo not drawn) [DOPR, 4-propyl-2,5-dimethoxyamphetamine hydrochloride]",3950 nM

# Same assay, conditions: read-out: Ki h5-HT1A (95% CI); receptor binding; HEK 293 membranes
row,Compound,Ki
1,"COc1cc(CC(C)N)c(OC)cc1C (stereo not drawn) [DOM, 4-methyl-2,5-dimethoxyamphetamine]",7240 nM

# Biological target: h5-HT2A (Homo sapiens, UniProt P28223)
# Sequence (P28223 whole entry, looked up): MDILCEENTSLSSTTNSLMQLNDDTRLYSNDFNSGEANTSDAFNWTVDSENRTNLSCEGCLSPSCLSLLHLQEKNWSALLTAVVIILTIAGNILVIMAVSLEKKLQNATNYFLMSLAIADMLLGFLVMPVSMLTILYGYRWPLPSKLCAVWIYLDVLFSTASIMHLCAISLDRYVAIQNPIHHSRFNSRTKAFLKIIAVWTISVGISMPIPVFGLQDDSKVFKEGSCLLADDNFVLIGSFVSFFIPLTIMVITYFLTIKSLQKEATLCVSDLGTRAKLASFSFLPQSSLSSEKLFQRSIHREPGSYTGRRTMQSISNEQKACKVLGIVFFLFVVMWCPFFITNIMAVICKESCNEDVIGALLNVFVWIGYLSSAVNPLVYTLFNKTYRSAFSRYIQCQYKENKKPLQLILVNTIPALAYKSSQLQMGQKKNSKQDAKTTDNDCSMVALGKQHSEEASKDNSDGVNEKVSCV
# Assay: β-arrestin 2 recruitment (NanoBiT), h5-HT2A
# Type: cell-based
# Design: expressed in transfected cells
# Conditions: not given
# Experimental: Activation of h5-HT2A, h5-HT2B, and h5-HT2C receptors was examined by measuring the accumulation of inositol monophosphate (IP1) as a marker for Gαq-mediated signaling. For h5-HT2A, additional assays measured β-arrestin 2 recruitment and arachidonic acid release, the latter serving as a marker of Gαi/o,12/13 activation. The methodology is described in detail in the Supplementary information.
# as §1, with “0.05). […]” for “0.05).”
# as §2, §3, §4, §5, §6, §7, §8, §9, §10, §11, §12, §13
Compound,EC50,Agonist type in the β-arrestin 2 recruitment assay at the 5-HT2A receptor
"CCCCCc1cc(OC)c(CC(C)N)cc1OC (stereo not drawn) [DOAM, 4-amyl-2,5-dimethoxyamphetamine]",56 nM,
"CCCCc1cc(OC)c(CC(C)N)cc1OC (stereo not drawn) [DOBU, 4-butyl-2,5-dimethoxyamphetamine]",24 nM,full agonists
"CCc1cc(OC)c(CC(C)N)cc1OC (stereo not drawn) [DOET, 4-ethyl-2,5-dimethoxyamphetamine]",12 nM,full agonists
"COc1cc(CC(C)N)c(OC)cc1C (stereo not drawn) [DOM, 4-methyl-2,5-dimethoxyamphetamine]",55 nM,full agonists
"CCCc1cc(OC)c(CC(C)N)cc1OC.Cl (stereo not drawn) [DOPR, 4-propyl-2,5-dimethoxyamphetamine hydrochloride]",9.3 nM,full agonists

# Same assay, conditions: read-out: β-arrestin 2 recruitment Emax h5-HT2A (95% CI)
row,Compound,Emax
1,"COc1ccc(OC)c(CC(C)N)c1.Cl (stereo not drawn) [2,5-DMA, 2,5-Dimethoxyamphetamine hydrochloride]",83%
2,"CCCCCc1cc(OC)c(CC(C)N)cc1OC (stereo not drawn) [DOAM, 4-amyl-2,5-dimethoxyamphetamine]",85%
3,"CCCCc1cc(OC)c(CC(C)N)cc1OC (stereo not drawn) [DOBU, 4-butyl-2,5-dimethoxyamphetamine]",96%
4,"CCc1cc(OC)c(CC(C)N)cc1OC (stereo not drawn) [DOET, 4-ethyl-2,5-dimethoxyamphetamine]",99%
5,"COc1cc(CC(C)N)c(OC)cc1C (stereo not drawn) [DOM, 4-methyl-2,5-dimethoxyamphetamine]",97%
6,"CCCc1cc(OC)c(CC(C)N)cc1OC.Cl (stereo not drawn) [DOPR, 4-propyl-2,5-dimethoxyamphetamine hydrochloride]",105%

# Biological target: T2, h5-HT2B (Homo sapiens, UniProt P41595)
# T2 sequence (P41595 whole entry): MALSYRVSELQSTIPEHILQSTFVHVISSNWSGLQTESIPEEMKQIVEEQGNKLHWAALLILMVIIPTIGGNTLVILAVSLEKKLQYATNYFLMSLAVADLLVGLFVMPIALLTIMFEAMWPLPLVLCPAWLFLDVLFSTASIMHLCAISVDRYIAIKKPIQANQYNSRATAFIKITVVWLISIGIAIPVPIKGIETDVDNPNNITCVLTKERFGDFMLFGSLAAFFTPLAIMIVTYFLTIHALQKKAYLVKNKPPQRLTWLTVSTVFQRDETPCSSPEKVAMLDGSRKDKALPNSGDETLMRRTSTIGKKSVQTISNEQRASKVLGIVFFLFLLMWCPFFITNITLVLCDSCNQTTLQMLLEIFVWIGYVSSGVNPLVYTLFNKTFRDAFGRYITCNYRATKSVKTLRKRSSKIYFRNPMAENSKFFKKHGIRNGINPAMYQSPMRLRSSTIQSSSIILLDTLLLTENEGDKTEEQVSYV
# Assay: Radioligand binding, h5-HT2B receptor ([3H]LSD)
# Conditions: not given
row,Compound,Ki
1,"COc1ccc(OC)c(CC(C)N)c1.Cl (stereo not drawn) [2,5-DMA, 2,5-Dimethoxyamphetamine hydrochloride]",5180 nM
2,"CCCCCc1cc(OC)c(CC(C)N)cc1OC (stereo not drawn) [DOAM, 4-amyl-2,5-dimethoxyamphetamine]",98 nM
3,"CCCCc1cc(OC)c(CC(C)N)cc1OC (stereo not drawn) [DOBU, 4-butyl-2,5-dimethoxyamphetamine]",162 nM
4,"CCc1cc(OC)c(CC(C)N)cc1OC (stereo not drawn) [DOET, 4-ethyl-2,5-dimethoxyamphetamine]",174 nM
5,"COc1cc(CC(C)N)c(OC)cc1C (stereo not drawn) [DOM, 4-methyl-2,5-dimethoxyamphetamine]",149 nM
6,"CCCc1cc(OC)c(CC(C)N)cc1OC.Cl (stereo not drawn) [DOPR, 4-propyl-2,5-dimethoxyamphetamine hydrochloride]",126 nM

# Biological target: T2, h5-HT2B
# Assay: IP1 formation (Gαq-mediated signaling), h5-HT2B
# Type: cell-based
# Conditions: not given
row,Compound,EC50
1,"COc1ccc(OC)c(CC(C)N)c1.Cl (stereo not drawn) [2,5-DMA, 2,5-Dimethoxyamphetamine hydrochloride]",93300 nM
2,"CCCCCc1cc(OC)c(CC(C)N)cc1OC (stereo not drawn) [DOAM, 4-amyl-2,5-dimethoxyamphetamine]",572 nM
3,"CCCCc1cc(OC)c(CC(C)N)cc1OC (stereo not drawn) [DOBU, 4-butyl-2,5-dimethoxyamphetamine]",570 nM
4,"CCc1cc(OC)c(CC(C)N)cc1OC (stereo not drawn) [DOET, 4-ethyl-2,5-dimethoxyamphetamine]",236 nM
5,"COc1cc(CC(C)N)c(OC)cc1C (stereo not drawn) [DOM, 4-methyl-2,5-dimethoxyamphetamine]",688 nM
6,"CCCc1cc(OC)c(CC(C)N)cc1OC.Cl (stereo not drawn) [DOPR, 4-propyl-2,5-dimethoxyamphetamine hydrochloride]",228 nM

# Same assay, conditions: read-out: IP1 formation Emax h5-HT2B (95% CI); normalized to maximal effect of 5-HT
row,Compound,Emax
1,"COc1ccc(OC)c(CC(C)N)c1.Cl (stereo not drawn) [2,5-DMA, 2,5-Dimethoxyamphetamine hydrochloride]",94%
2,"CCCCCc1cc(OC)c(CC(C)N)cc1OC (stereo not drawn) [DOAM, 4-amyl-2,5-dimethoxyamphetamine]",106%
3,"CCCCc1cc(OC)c(CC(C)N)cc1OC (stereo not drawn) [DOBU, 4-butyl-2,5-dimethoxyamphetamine]",122%
4,"CCc1cc(OC)c(CC(C)N)cc1OC (stereo not drawn) [DOET, 4-ethyl-2,5-dimethoxyamphetamine]",95%
5,"COc1cc(CC(C)N)c(OC)cc1C (stereo not drawn) [DOM, 4-methyl-2,5-dimethoxyamphetamine]",91%
6,"CCCc1cc(OC)c(CC(C)N)cc1OC.Cl (stereo not drawn) [DOPR, 4-propyl-2,5-dimethoxyamphetamine hydrochloride]",96%

# Source: publication PMC12916490 (Molecular Psychiatry, 2025)
